Measured values reported in US20090209494A1, “21-DEOXYMACBECIN ANALOGUES USEFUL AS ANTITUMOR AGENTS” (priority 2005, published 2009).
pKd: −log10 of the molar value. Values after ≈ are worked out from the molar mass of the structure shown.

Legend:
DU145 = test: monolayer proliferation assay (modified propidium iodide assay), DU145; format: cell-based, human; conditions: 4 days exposure, median of duplicate experiments
Procedure: (§1) In vitro evaluation of compounds for anticancer activity in a panel of 38 human tumour cell lines in a monolayer proliferation assay was carried out at the Oncotest Testing Facility, Institute for Experimental Oncology, Oncotest GmbH, Freiburg.
(§2) The Oncotest cell lines are established from human tumor xenografts as described by Roth et al., (1999). The origin of the donor xenografts was described by Fiebig et al., (1999). Other cell lines are either obtained from the NCl (H460, SF-268, OVCAR-3, DU145, MDA-MB-231, MDA-MB-468) or purchased from DSMZ, Braunschweig, Germany (LNCAP).
(§3) All cell lines, unless otherwise specified, were grown at 37° C. in a humidified atmosphere (95% air, 5% CO2) in a ‘ready-mix’ medium containing RPMI 1640 medium, 10% fetal calf serum, and 0.1 mg/mL gentamicin (PAA, Cölbe, Germany).
(§4) A modified propidium iodide assay was used to assess the effects of the test compound(s) on the growth of human tumour cell lines (Dengler et al., (1995)).
(§5) Briefly, cells were harvested from exponential phase cultures by trypsinization, counted and plated in 96 well flat-bottomed microtitre plates at a cell density dependent on the cell line (5-10.000 viable cells/well). After 24 h recovery to allow the cells to resume exponential growth, 0.010 mL of culture medium (6 control wells per plate) or culture medium containing a 21-deoxymacbecin analogue was added to the wells. Each concentration was plated in triplicate. […] Following 4 days of continuous exposure, cell culture medium with or without test compound was replaced by 0.2 mL of an aqueous propidium iodide (PI) solution (7 mg/L). To measure the proportion of living cells, cells were permeabilized by freezing the plates. After thawing the plates, fluorescence was measured using the Cytofluor 4000 microplate reader (excitation 530 nm, emission 620 nm), giving a direct relationship to the total number of viable cells.
(§6) Growth inhibition was expressed as treated/control×100 (% T/C). For active compounds, IC70 values were estimated by plotting compound concentration versus cell viability.
(§7) In vitro evaluation of the test compounds for anticancer activity in a panel of human tumour cell lines in a monolayer proliferation assay was carried out as described in the general methods using a modified propidium iodide assay.

MCF7 = test: monolayer proliferation assay (modified propidium iodide assay), MCF7; format: cell-based, human; conditions: 4 days exposure, median of duplicate experiments
Procedure: as §1, §2, §3, §4, §5, §6, §7

394NL = test: monolayer proliferation assay (modified propidium iodide assay), 394NL; format: cell-based, human; conditions: 4 days exposure, median of duplicate experiments
Procedure: as §1, §2, §3, §4, §5, §6, §7

OVCAR3 = test: monolayer proliferation assay (modified propidium iodide assay), OVCAR3; format: cell-based, human; conditions: 4 days exposure, median of duplicate experiments
Procedure: as §1, §2, §3, §4, §5, §6, §7

[1] = target: terminal deoxynucleotidyl transferase (Homo sapiens, UniProt P04053); conditions: Ono et al., 1982; cited from earlier work
Yeast Hsp90 = Yeast Hsp90 (Saccharomyces cerevisiae, UniProt P02829); test: Hsp90 binding, isothermal titration calorimetry
Procedure: Yeast Hsp90 was dialysed against 20 mM Tris pH 7.5 containing 1 mM EDTA and 5 mM NaCl and then diluted to 0.008 mM in the same buffer, but containing 2% DMSO. The test compounds were dissolved in 100% DMSO at a concentration of 50 mM and subsequently diluted to 0.1 mM in the same buffer as for Hsp90 with 2% DMSO. Heats of interaction were measured at 30° C. on a MSC system (Microcal), with a cell volume of 1.458 mL. 10 aliquots of 0.027 mL of 0.100 mM of each test compound were injected into 0.008 mM yeast Hsp90. Heats of dilution were determined in a separate experiment by injecting the test compound into buffer containing 2% DMSO, and the corrected data fitted using a nonlinear least square curve-fitting algorithm (Microcal Origin) with three floating variables: stoichiometry, binding constant and change in enthalpy of interaction.

Solubility assay = format: physicochemical; conditions: aqueous buffer, kinetic from dmso stock; 2% DMSO in PBS pH 7.3; shaken up to six hours; maximum measurable 0.5 mM
Procedure: Solutions (25 mM) of the test compounds were prepared by dissolving 3-5 mg aliquots in the appropriate amount of DMSO.
Aliquots (0.01 mL) were added to 0.490 mL of pH 7.3 PBS in glass vials. For each time point, 3 PBS vials were prepared in amber glass vials. For the six hour time point triplicate aliquots in DMSO were also prepared.
The resulting 0.5 mM solutions were shaken for up to six hours, with vials removed for analysis at 1, 3 and 6 hours. Samples were analysed by HPLC (0.025 mL injections).
Solubility in 2% DMSO in PBS at each time point was determined by comparing total peak areas for each chromatogram with mean total peak area for chromatograms produced from the corresponding 6 hour DMSO solutions. (Mean total peak area in DMSO solutions was assumed to be equivalent to a 0.5 mM solution).

SF268 = test: monolayer proliferation assay (modified propidium iodide assay), SF268; format: cell-based, human; conditions: 4 days exposure, median of duplicate experiments
Procedure: as §1, §2, §3, §4, §5, §6, §7

1138L = test: monolayer proliferation assay (modified propidium iodide assay), 1138L; format: cell-based, human; conditions: 4 days exposure, median of duplicate experiments
Procedure: as §1, §2, §3, §4, §5, §6, §7

H460 = test: monolayer proliferation assay (modified propidium iodide assay), H460; format: cell-based, human; conditions: 4 days exposure, median of duplicate experiments
Procedure: as §1, §2, §3, §4, §5, §6, §7

251L = test: monolayer proliferation assay (modified propidium iodide assay), 251L; format: cell-based, human; conditions: 4 days exposure, median of duplicate experiments
Procedure: as §1, §2, §3, §4, §5, §6, §7

LNCAP = test: monolayer proliferation assay (modified propidium iodide assay), LNCAP; format: cell-based, human; conditions: 4 days exposure, median of duplicate experiments
Procedure: as §1, §2, §3, §4, §5, §6, §7

Reverse transcriptase = conditions: Ono et al., 1982; cited from earlier work

Chain of terminal deoxynucleotidyl transferase (P04053 whole entry, species assumed): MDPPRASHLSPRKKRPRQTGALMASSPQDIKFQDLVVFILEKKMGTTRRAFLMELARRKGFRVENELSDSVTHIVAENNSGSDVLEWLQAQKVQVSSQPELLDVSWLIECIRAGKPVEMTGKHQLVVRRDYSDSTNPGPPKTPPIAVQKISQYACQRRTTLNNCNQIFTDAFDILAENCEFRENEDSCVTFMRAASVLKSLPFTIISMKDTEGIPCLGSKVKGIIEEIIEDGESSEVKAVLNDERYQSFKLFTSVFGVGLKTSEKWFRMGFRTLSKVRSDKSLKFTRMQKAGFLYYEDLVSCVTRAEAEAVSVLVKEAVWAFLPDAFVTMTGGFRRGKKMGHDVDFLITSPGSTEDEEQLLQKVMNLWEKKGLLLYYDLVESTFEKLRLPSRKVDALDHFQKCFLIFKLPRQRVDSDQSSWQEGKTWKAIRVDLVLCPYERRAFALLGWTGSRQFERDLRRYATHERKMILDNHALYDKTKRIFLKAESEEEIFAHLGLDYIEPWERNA
Chain of Yeast Hsp90 (P02829 whole entry): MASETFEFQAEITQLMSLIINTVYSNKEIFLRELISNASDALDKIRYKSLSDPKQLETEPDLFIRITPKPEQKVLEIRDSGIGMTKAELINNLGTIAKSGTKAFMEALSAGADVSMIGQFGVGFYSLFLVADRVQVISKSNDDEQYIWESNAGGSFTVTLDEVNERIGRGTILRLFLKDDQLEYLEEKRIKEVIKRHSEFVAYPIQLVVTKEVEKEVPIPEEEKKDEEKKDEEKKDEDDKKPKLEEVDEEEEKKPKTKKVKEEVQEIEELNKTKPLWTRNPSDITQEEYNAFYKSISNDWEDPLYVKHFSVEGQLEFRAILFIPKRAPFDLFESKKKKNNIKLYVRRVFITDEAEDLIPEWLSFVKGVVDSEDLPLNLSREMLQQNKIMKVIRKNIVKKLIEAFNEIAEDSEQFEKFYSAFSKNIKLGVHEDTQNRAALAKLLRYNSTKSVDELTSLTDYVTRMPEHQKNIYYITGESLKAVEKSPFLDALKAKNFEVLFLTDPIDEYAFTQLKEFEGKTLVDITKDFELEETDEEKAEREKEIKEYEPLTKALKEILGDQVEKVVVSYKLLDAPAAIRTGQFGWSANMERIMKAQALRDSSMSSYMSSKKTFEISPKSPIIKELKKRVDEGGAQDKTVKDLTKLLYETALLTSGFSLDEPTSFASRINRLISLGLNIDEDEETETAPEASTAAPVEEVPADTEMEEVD

CO[C@H]1[C@@H](OC)C[C@H](C)[C@@H](OC)C2=CC(=O)C=C(NC(=O)/C(C)=C/C=C\[C@H](C)[C@@H](OC(N)=O)/C(C)=C/[C@@H]1C)C2=O [macbecin]
Test/Control (%) at drug concentration (DU145; 1 μg/mL): 13% | Test/Control (%) at drug concentration (DU145; 10 μg/mL): 5% | Test/Control (%) at drug concentration (MCF7; 1 μg/mL): 42% | Test/Control (%) at drug concentration (MCF7; 10 μg/mL): 19% | Test/Control (%) at drug concentration (394NL; 1 μg/mL): 16% | Test/Control (%) at drug concentration (394NL; 10 μg/mL): 13% | Test/Control (%) at drug concentration (OVCAR3; 1 μg/mL): 54% | Test/Control (%) at drug concentration (OVCAR3; 10 μg/mL): 11% | terminal deoxynucleotidyl transferase activity inhibition [1]: not inhibited | pKd (Yeast Hsp90): 6.62 | solubility (Solubility assay): 81 µM (≈ 45.3 µg/mL) | Test/Control (%) at drug concentration (SF268; 1 μg/mL): 40% | Test/Control (%) at drug concentration (SF268; 10 μg/mL): 6% | Test/Control (%) at drug concentration (1138L; 1 μg/mL): 71% | Test/Control (%) at drug concentration (1138L; 10 μg/mL): 31% | Test/Control (%) at drug concentration (H460; 1 μg/mL): 62% | Test/Control (%) at drug concentration (H460; 10 μg/mL): 25% | Test/Control (%) at drug concentration (251L; 1 μg/mL): 58% | Test/Control (%) at drug concentration (251L; 10 μg/mL): 44% | Test/Control (%) at drug concentration (LNCAP; 1 μg/mL): 34% | Test/Control (%) at drug concentration (LNCAP; 10 μg/mL): 32% | Reverse transcriptase activity inhibition (Reverse transcriptase): not inhibited
